# In patent US11000033B2, “Ketone or oxime compound, and herbicide” (NISSAN CHEMICAL CORPORATION, priority 2014, dated 2021):
# Legend:
# Format in all cases: in vivo
# [1] = test system: Echinochloa oryzacola Vasing.; experiment: Test Example 2: herbicidal activity, application during weed generation in submerged conditions (symbol A); conditions: Table 23; application herbicide amount 320 g/ha; grade 0-5 by criteria of Test Example 1
# Method in brief: (§1)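 Weeds emerging under flooded conditions were treated with compound formulated as an emulsion and diluted with water to the intended herbicide amount, poured onto the surface of 4 cm standing water. Seeds had been co-sown in alluvial soil; plants grew at 25° C. to 30° C. and were assessed after 3 weeks.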
# Scirpus juncoides = experiment: Test Example 2: herbicidal activity, application during weed generation in submerged conditions (symbol B); conditions: Table 23; application herbicide amount 320 g/ha; grade 0-5 by criteria of Test Example 1
# Method in brief: as §1
# Monochoria vaginalis = experiment: Test Example 2: herbicidal activity, application during weed generation in submerged conditions (symbol C); conditions: Table 23; application herbicide amount 320 g/ha; grade 0-5 by criteria of Test Example 1
# Method in brief: as §1
# [2] = test system: Echinochloa crus-galli var. crus-galli; experiment: Test Example 3: herbicidal effect by foliage application, Wagner pot (symbol H); conditions: application herbicide amount 320 g/ha
# Method in brief: (§2)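 Alluvial soil was flooded to a depth of 0.1–0.5 cm, seeded with the weeds and rice, and kept in a greenhouse at 25–30 °C. After 14 days of growth, the foliage received a small-sprayer application of emulsion diluted to the intended rate; injury was rated at 3 weeks.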
# Leptochloa chinensis = experiment: Test Example 3: herbicidal effect by foliage application, Wagner pot (symbol D); conditions: application herbicide amount 320 g/ha
# Method in brief: as §2
# Digitaria ciliaris = experiment: Test Example 4: herbicidal effect by soil treatment (symbol F); conditions: 320 g/ha
# Method in brief: (§3)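 Seeds were sown in sterilized diluvial soil, covered with about 1.5 cm of soil, and the soil surface was sprayed with a water-diluted emulsion of the compound at a predetermined rate. Plants grew in a greenhouse at 25° C. to 30° C.; effects were scored visually 3 weeks after application.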
# Setaria viridis = experiment: Test Example 4: herbicidal effect by soil treatment (symbol G); conditions: 320 g/ha
# Method in brief: as §3
# Avena fatua = experiment: Test Example 4: herbicidal effect by soil treatment (symbol I); conditions: 320 g/ha
# Method in brief: as §3
# Alopecurus myosuroides [3] = experiment: Test Example 4: herbicidal effect by soil treatment (symbol J); conditions: 320 g/ha
# Method in brief: as §3
# Lolium multiflorum Lam. = experiment: Test Example 4: herbicidal effect by soil treatment (symbol K); conditions: 320 g/ha
# Method in brief: as §3
# Stellaria media [4] = experiment: Test Example 4: herbicidal effect by soil treatment (symbol P); conditions: 320 g/ha
# Method in brief: as §3
# Veronica persica = experiment: Test Example 4: herbicidal effect by soil treatment (symbol R); conditions: 320 g/ha
# Method in brief: as §3
# rice = experiment: Test Example 4: effect on crop by soil treatment (symbol b); conditions: 320 g/ha
# Method in brief: (§4)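 Crop seed is sown in spots together with several weed species in a box of sterilized diluvial soil. It is covered by about 1.5 cm of soil and kept in a greenhouse held between 25° C. and 30° C.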
# wheat = experiment: Test Example 4: effect on crop by soil treatment (symbol e); conditions: 320 g/ha
# Method in brief: as §4
# [5] = test system: Echinochloa crus-galli var. crus-galli; experiment: Test Example 5: herbicidal effect by foliage application, plastic box (symbol H); conditions: 320 g/ha, 3 weeks after application
# Method in brief: (§5)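 Emulsion formulation, diluted with water to the intended rate, was applied uniformly to leaves by small sprayer. Recipients were 14-day greenhouse-grown seedlings (25° C. to 30° C.). Assessment followed at 3 weeks.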
# Alopecurus myosuroides [6] = experiment: Test Example 5: herbicidal effect by foliage application, plastic box (symbol J); conditions: 320 g/ha, 3 weeks after application
# Method in brief: as §5
# Amaranthus retroflexus = experiment: Test Example 5: herbicidal effect by foliage application, plastic box (symbol N); conditions: 320 g/ha, 3 weeks after application
# Method in brief: as §5
# Chenopodium album = experiment: Test Example 5: herbicidal effect by foliage application, plastic box (symbol O); conditions: 320 g/ha, 3 weeks after application
# Method in brief: as §5
# Stellaria media [7] = experiment: Test Example 5: herbicidal effect by foliage application, plastic box (symbol P); conditions: 320 g/ha, 3 weeks after application
# Method in brief: as §5
# rice plant = experiment: Test Example 5: effect on crop by foliage application, plastic box (symbol b); conditions: 320 g/ha, 3 weeks after application
# Method in brief: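 Crop seed is sown alongside grass and broadleaf weed species in spots in sterilized diluvial soil, then covered to a depth of about 1.5 cm. Plants grow in a greenhouse kept at 25° C. to 30° C.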
Structure (SMILES),"Herbicidal effect grade, A: Echinochloa oryzacola Vasing. [1]","Herbicidal effect grade, B: Scirpus juncoides (Scirpus juncoides)","Herbicidal effect grade, C: Monochoria vaginalis (Monochoria vaginalis)","herbicidal effect on H (Echinochloa crus-galli var. crus-galli), grade 0-5 [2]","herbicidal effect on D (Leptochloa chinensis), grade 0-5 (Leptochloa chinensis)","F: Digitaria ciliaris, herbicidal effect grade (Digitaria ciliaris)","G: Setaria viridis, herbicidal effect grade (Setaria viridis)","I: Avena fatua, herbicidal effect grade (Avena fatua)","J: Alopecurus myosuroides, herbicidal effect grade (Alopecurus myosuroides [3])","K: Lolium multiflorum Lam., herbicidal effect grade (Lolium multiflorum Lam.)","P: Stellaria media, herbicidal effect grade (Stellaria media [4])","R: Veronica persica, herbicidal effect grade (Veronica persica)","b: directly sowed rice plant, effect grade on crop (rice)","e: wheat, effect grade on crop (wheat)","H: Echinochloa crus-galli var. crus-galli, herbicidal effect (criteria 0-5) [5]","J: Alopecurus myosuroides, herbicidal effect (criteria 0-5) (Alopecurus myosuroides [6])","N: Amaranthus retroflexus, herbicidal effect (criteria 0-5) (Amaranthus retroflexus)","O: Chenopodium album, herbicidal effect (criteria 0-5) (Chenopodium album)","P: Stellaria media, herbicidal effect (criteria 0-5) (Stellaria media [7])","b: directly sowed rice plant, effect on crop (criteria 0-5) (rice plant)"
CON=C(C)CC1CC(OC(=O)C(CSC)=NOC)=C(c2c(C)cc(C)cc2C)C1=O (stereo not drawn) [1-098],5 (Herbicidal ratio of 90% or more (almost completely withered)),4 (Herbicidal ratio of 70% or higher and lower than 90%),3 (Herbicidal ratio of 40% or higher and lower than 70%),5 (Herbicidal ratio of 90% or more (almost completely withered)),5 (Herbicidal ratio of 90% or more (almost completely withered)),5 (Herbicidal ratio of 90% or more (almost completely withered)),5 (Herbicidal ratio of 90% or more (almost completely withered)),2 (Herbicidal ratio of 20% or higher and lower than 40%),5 (Herbicidal ratio of 90% or more (almost completely withered)),5 (Herbicidal ratio of 90% or more (almost completely withered)),0 (Herbicidal ratio of 5% or lower (almost no effect)),0 (Herbicidal ratio of 5% or lower (almost no effect)),5 (Herbicidal ratio of 90% or more (almost completely withered)),3 (Herbicidal ratio of 40% or higher and lower than 70%),5 (Herbicidal ratio of 90% or more (almost completely withered)),5 (Herbicidal ratio of 90% or more (almost completely withered)),0 (Herbicidal ratio of 5% or lower (almost no effect)),0 (Herbicidal ratio of 5% or lower (almost no effect)),3 (Herbicidal ratio of 40% or higher and lower than 70%),5 (Herbicidal ratio of 90% or more (almost completely withered))
CON=C(C)CC1CC(OC(=O)c2nsc(Cl)c2Cl)=C(c2c(C)cc(C)cc2C)C1=O (stereo not drawn) [1-099],4 (Herbicidal ratio of 70% or higher and lower than 90%),4 (Herbicidal ratio of 70% or higher and lower than 90%),2 (Herbicidal ratio of 20% or higher and lower than 40%),5 (Herbicidal ratio of 90% or more (almost completely withered)),5 (Herbicidal ratio of 90% or more (almost completely withered)),5 (Herbicidal ratio of 90% or more (almost completely withered)),5 (Herbicidal ratio of 90% or more (almost completely withered)),2 (Herbicidal ratio of 20% or higher and lower than 40%),5 (Herbicidal ratio of 90% or more (almost completely withered)),5 (Herbicidal ratio of 90% or more (almost completely withered)),0 (Herbicidal ratio of 5% or lower (almost no effect)),0 (Herbicidal ratio of 5% or lower (almost no effect)),5 (Herbicidal ratio of 90% or more (almost completely withered)),3 (Herbicidal ratio of 40% or higher and lower than 70%),5 (Herbicidal ratio of 90% or more (almost completely withered)),5 (Herbicidal ratio of 90% or more (almost completely withered)),0 (Herbicidal ratio of 5% or lower (almost no effect)),3 (Herbicidal ratio of 40% or higher and lower than 70%),3 (Herbicidal ratio of 40% or higher and lower than 70%),5 (Herbicidal ratio of 90% or more (almost completely withered))
CON=C(C)CC1CC(OC(=O)c2cc(C)on2)=C(c2c(C)cc(C)cc2C)C1=O (stereo not drawn) [1-100],5 (Herbicidal ratio of 90% or more (almost completely withered)),5 (Herbicidal ratio of 90% or more (almost completely withered)),3 (Herbicidal ratio of 40% or higher and lower than 70%),5 (Herbicidal ratio of 90% or more (almost completely withered)),5 (Herbicidal ratio of 90% or more (almost completely withered)),5 (Herbicidal ratio of 90% or more (almost completely withered)),5 (Herbicidal ratio of 90% or more (almost completely withered)),3 (Herbicidal ratio of 40% or higher and lower than 70%),5 (Herbicidal ratio of 90% or more (almost completely withered)),5 (Herbicidal ratio of 90% or more (almost completely withered)),0 (Herbicidal ratio of 5% or lower (almost no effect)),1 (Herbicidal ratio of 5% or higher and lower than 20%),5 (Herbicidal ratio of 90% or more (almost completely withered)),5 (Herbicidal ratio of 90% or more (almost completely withered)),5 (Herbicidal ratio of 90% or more (almost completely withered)),5 (Herbicidal ratio of 90% or more (almost completely withered)),0 (Herbicidal ratio of 5% or lower (almost no effect)),1 (Herbicidal ratio of 5% or higher and lower than 20%),0 (Herbicidal ratio of 5% or lower (almost no effect)),5 (Herbicidal ratio of 90% or more (almost completely withered))
